# Experimental data published in patent US4529593A, “Use of gallium salts to treat disorders of calcium homeostasis” (Sloan-Kettering Institute for Cancer Research, priority 1984, dated 1985).
# Experiments:
# kidney [1] = conditions: Leyland-Jones et al 1983; cited from earlier work
# [2] = resorption of devitalized bone particles from treated rats; conditions: particles from treated rats vs controls
# Text: Devitalized bone particles (i.e. bones containing only mineral and matrix without any cellular component) were studied.
# kidney [3] = assay: clinical toxicity of gallium (kidney damage, long-term infusion); format: in vivo, patients; conditions: printed 22+ months
# Text: (§1) As with most anticancer drugs, gallium can potentially cause serious toxicity. The most serious side-effect being kidney damage. […] Furthermore, the anti bone-resorptive effects of gallium nitrate are achieved with less than 25-50% of the anticancer dose. Thus the method should retain safety and efficacy for prolonged periods of time.
# [4] = tested on: cancer-related hypercalcemia; assay: treatment of cancer-related hypercalcemia with gallium nitrate; format: in vivo, patients; conditions: for Serum calcium, Post-Treatment: 100 mg/sq m/d × 5 d; for Total Serum Calcium, Post-Treatment: 200 mg/sq m/d × 5-7 d
# Description: Summary: In the initial study, gallium nitrate was used for the treatment of 10 patients with cancer-related hypercalcemia. The daily dose of drug was 200 mg/sq m administered as a continuous infusion for durations ranging from 5-7 days. The diagnoses of this patient population and the change in total serum calcium concentration in response to this therapy are presented in Table 4a.
# The subsequent increase of their disease was not accompanied by an increase in serum calcium which indicates a persistent control of the metabolic problem despite lack of control of the underlying cancer. All other patients who received the drug manifested progressive cancer despite control of the hypercalcemia. […] In a subsequent study, we further reduced the daily dose of gallium nitrate to 100 mg/sq m administered for 5 days. At a lower dose, 5 of 8 patients were normalized (Table 4b). These preliminary clinical results reflect our preclinical studies previously detailed, namely that there exists a distinct dose-response relation to the anti-calcium effect (Warrell, R. P. Jr, Bockman, R. S. et al, J. Clin. Invest. 73:1487 (1984 )).
# [5] = tested on: bone cells (particularly osteoclasts); assay: histology of cultured rat bones (toxicity to bone cells); format: cell-based
# Text: Samples of cultured rat bones used in experiments previously described herein were fixed, decalcified and stained with hematoxylin and eosin. Histologic sections were examined by light microscopy.
# [6] = oral absorption and excretion of gallium nitrate in the dog; format: in vivo; conditions: for plasma gallium concentration: single oral dose 1200 mg by gavage
# Description: To evaluate the oral absorption and excretion of gallium nitrate, a concentrated solution of the drug was administered to a dog by oral gavage (total dose=1200 mg). Sequential plasma samples and the next 24 hour urinary volume were collected and assayed for gallium concentration by a flameless atomic absorption sprectrophotometer (Kelsen, D. P. et al, Cancer 46:2009, 1980).
# The subsequent 24 hour urine volume was 183 ml and it contained a total amount of 1.13 mg of elemental gallium. Assuming similar patterns of excretion in humans and dogs, it is estimated that approximately 0.5-2% of an orally administered dose is absorbed and excreted into the urine.
# [7] = tested on: bone mineral (metaphysis); assay: gallium incorporation into bone mineral, X-ray diffraction; format: in vivo, rats
# Text: Conceivably, gallium promotes or stabilizes crystal structure to produce matrix with more crystalline hydroxyapatite, or the drug promotes growth rather than dissolution of smaller crystallites.
# [8] = intravenous infusion, clinical dose; Kelsen et al 1980; cited from earlier work
# calcium metabolism = assay: metabolic study of patients receiving gallium nitrate (calcium homeostasis); format: in vivo
# Text: as §1
# Experimental Results: Studies of calcium homeostasis require an assessment of multiple factors including dietary intake, excretion of calcium into urine and stool, and analysis of calcium mobilization from body stores (chiefly bone). Four patients who participated in a careful study of the effects of gallium nitrate upon calcium metabolism were thus assessed. Patients were hospitalized and received a diet of defined calcium, sodium, and fluid intake. Measurements of calcium excretion into urine and stool (along with multiple other laboratory tests) were made daily during a 6-day baseline period and during a subsequent treatment period using gallium nitrate. The drug was administered as a continuous infusion at a dose of 300 mg/sq m/day for durations ranging from 4-7 days.
# [9] = 4 patients, continuous infusion 300 mg/sq m/day, 4-7 days
structure (smiles),measurement,setting,value
O=[N+]([O-])[O-].O=[N+]([O-])[O-].O=[N+]([O-])[O-].[Ga+3] [gallium nitrate],nephrotoxicity,kidney [1],generally reversible and that it is not cumulative
same,susceptibility of devitalized bone particles to resorption,[2],significantly less susceptible to resorption than controls
same,duration of intermittent high-dose infusions without serious toxicity,kidney [3],≥ 22 months
same,patients normalized,[4]; 100 mg/sq m for 5 days,5 of 8
same,"Serum calcium, Post-Treatment","[4]; Patient 1, Breast, pre-treatment 13.9",11.3 mg/dL
same,"Serum calcium, Post-Treatment","[4]; Patient 2, Anus, pre-treatment 12.7",6.3 mg/dL
same,"Serum calcium, Post-Treatment","[4]; Patient 3, Kidney, pre-treatment 14.3",12.0 mg/dL
same,"Serum calcium, Post-Treatment","[4]; Patient 4, Breast, pre-treatment 14.5",8.7 mg/dL
same,"Serum calcium, Post-Treatment","[4]; Patient 5, Pancreas, pre-treatment 14.6",10.0 mg/dL
same,"Serum calcium, Post-Treatment","[4]; Patient 6, Myeloma, pre-treatment 15.0",13.7 mg/dL
same,"Serum calcium, Post-Treatment","[4]; Patient 7, Lung, pre-treatment 13.0",10.8 mg/dL
same,"Serum calcium, Post-Treatment","[4]; Patient 8, Breast, pre-treatment 17.0",9.0 mg/dL
same,response (serum calcium concentration),"[4]; 200 mg/sq m/d continuous infusion 5-7 days, 10 patients",all patients responded to this treatment by a reduction in serum calcium concentration to normal (and frequently sub-normal) values
same,"Total Serum Calcium, Post-Treatment","[4]; Patient 1, Breast, pre-treatment 13.8",8.9 mg/dL
same,"Total Serum Calcium, Post-Treatment","[4]; Patient 2, Breast, pre-treatment 15.2",8.5 mg/dL
same,"Total Serum Calcium, Post-Treatment","[4]; Patient 3, Lymphoma, pre-treatment 15.6",6.6 mg/dL
same,"Total Serum Calcium, Post-Treatment","[4]; Patient 4, Head & Neck, pre-treatment 12.3",8.5 mg/dL
same,"Total Serum Calcium, Post-Treatment","[4]; Patient 5, Breast, pre-treatment 14.4",7.7 mg/dL
same,"Total Serum Calcium, Post-Treatment","[4]; Patient 6, Lymphoma, pre-treatment 15.6",8.6 mg/dL
same,"Total Serum Calcium, Post-Treatment","[4]; Patient 7, Lung, pre-treatment 12.5",7.0 mg/dL
same,"Total Serum Calcium, Post-Treatment","[4]; Patient 8, Penis, pre-treatment 12.3",9.3 mg/dL
same,"Total Serum Calcium, Post-Treatment","[4]; Patient 9, Head & Neck, pre-treatment 13.5",7.8 mg/dL
same,"Total Serum Calcium, Post-Treatment","[4]; Patient 10, Lung, pre-treatment 13.7",9.3 mg/dL
same,size of a lymphomatous mass,"[4]; 200 mg/sq m/d, Patient 5, followed by progression and death",transient decrease in the size of a lymphomatous mass
same,anti-cancer effect associated with hypocalcemic effect,"[4]; 200 mg/sq m/d, all patients except Patient 5",not associated with any anti-cancer effect
same,lethal toxicity to bone cells,[5]; pharmacologic concentrations,do not cause lethal toxicity to bone cells
same,cellular components (histology),"[5]; pharmacologic concentrations, 72 hrs, compared with mithramycin-treated bones",normal cellular components
same,bone cell morphology,"[5]; relative to untreated control bones, 72 hrs",no differences in bone cell morphology
same,oral gallium nitrate dose estimated to achieve effective plasma levels,"[6]; 70 kg human, extrapolated from dog data",0.5-20 gms
same,toxic reaction,"[6]; dog, oral 1200 mg",no toxic reaction
same,total amount of elemental gallium in urine,"[6]; dog, oral 1200 mg, 24 hour urine",1.13 mg
same,plasma gallium concentration,"[6]; dog, 0 hrs",0 µg/mL
same,plasma gallium concentration,"[6]; dog, 0.25 hrs",0.5 µg/mL
same,plasma gallium concentration,"[6]; dog, 0.5 hrs",1.25 µg/mL
same,plasma gallium concentration,"[6]; dog, 1 hr",1.37 µg/mL
same,plasma gallium concentration,"[6]; dog, 2 hrs",2.75 µg/mL
same,plasma gallium concentration,"[6]; dog, 4 hrs",2.0 µg/mL
same,plasma gallium concentration,"[6]; dog, 24 hrs",0.75 µg/mL
same,crystal size in metaphyseal-derived particles (X-ray diffraction),[7]; gallium treated animals vs controls,marked increase in crystal size
same,gallium incorporation into bone,[7]; rats treated with gallium nitrate,incorporated into the bone metaphysis where more active bone mineral turnover was occurring and into the metabolically more active crystalline pool
same,steady-state plasma gallium concentration,[8],0.9 to 2.0 µg/mL
same,calcium excretion relative to baseline,calcium metabolism; [9],no significant increase in calcium excretion
same,total serum calcium concentration,calcium metabolism; [9],reduced by the gallium infusion
same,dose for anti bone-resorptive effects as share of the anticancer dose,calcium metabolism; of the anticancer dose,25-50%
same,urinary calcium excretion,calcium metabolism; patients receiving gallium nitrate,decreased urinary calcium excretion
same,calcium balance,calcium metabolism; patients while receiving the drug,remained in positive calcium balance
